Experimental data: US11583570B2, “Use of autoinducer-related pathway in inducing apoptosis and anti-infective therapy” (TSINGHUA UNIVERSITY, priority 2017, dated 2023)

How the values were obtained:
[1] = Atomic force microscopy of reconstituted lipid domains; format: physicochemical
Experimental: […] The dried lipid film was resuspended with 4 mM HEPES buffer (with 150 mM NaCl) to produce SUV. Vesicle solution (100 μl) was added to freshly cleaved mica clamped in a fluid cell on the AFM heater head. After incubation at 55° C. for 30 min and then kept at RT for another 30 min, the bilayers were rinsed extensively with HEPES buffer to remove excess vesicles.
AFM images were obtained at RT on a NanoScope V Multimode Scanning Probe Microscope (Digital Instrument, Veeco, Santa Barbara, Calif., USA) in the tapping mode using V shape Si3N4 tips (model DNL-10) with spring constants of ˜0.35 N/m and resonance frequencies between 8 and 10 kHz in aqueous solutions. All experiments were conducted in Hepes buffer using a commercially available fluid cell, sealed by an O-ring. A J scanner (125 μm×125 μm) was used with a scan rate between 0.8 and 2 Hz per line.

[2] = test system: Fcγ RIIA; assay: Quantum dot-based single particle tracking, Fcγ RIIA in Cos-1 cells; format: cell-based, human
Experimental: (§1) To track individual TNFR1 on the cell membrane, anti-TNFR1 IgG (was first papain digested to yield a Fab fragment. The Fab was then conjugated with biotin through the unique —SH at its C terminal. To prepare anti TNFR1 Fab QD conjugates, a solution of 0.7 nM anti TNFR1—Fab-biotin in 1 ml of DMEM was added drop-wise to 1 ml of 2 nM QD 605-streptavidin conjugate. Cell monolayers (50% confluent) previously serum starved for 1 hr were treated with 3OC12 HSL or left untreated and incubated with […] of the final anti TNFR1-Fab-QD solution at 25° C. for 2 min. The cells were then washed twice with PBS at 25° C., placed in serum-free medium, and loaded for imaging. For single-FcRγIIA tracking, Fc fragment was obtained by papain digestion of an anti-BSA IgG (Sigma Aldrich). Fc-QD conjugate was produced as described before. Cos-1 cells were transiently transfected with Fcγ RIIA plasmid, 24 hrs later, cells were stimulated with 3OC12 HSL or left untreated and incubated with […] of the final Fc-QD solution at 25° C. for 2 min. Quantum dot-labeled cells were imaged in TIRF mode. The fluorescence was excited at 488 nm and gated by a band-pass filter (575-640, Carl Zeiss). The excitation power was about 2 mW measured after the objective. Movies of 400 frames were acquired for each sample at a full-frame rate of 17 Hz. Individual trajectories were constructed by Utrack written in Matlab. Diffusion coefficient and plot area were calculated by customized programs written with Matlab. For motion pattern determination by MSD-t analysis 5: linear, simple Brownian diffusion; open-up parabolic, directed diffusion; open-down parabolic, restricted diffusion; and near zero, stationary.

[3] = test system: ZAP70; assay: ZAP70 phosphorylation in live cells recovered from T cell culture; format: cell-based; conditions: live cells recovered from the culture
[4] = test system: thymoma line EL4; assay: Annexin V/PI apoptosis detection, EL4; format: cell-based
Experimental: (§2) Cell apoptosis was detected with Annexin V/PI apoptosis detection Kit. Briefly, cells were stimulated with HSLs or left untreated. 6 hrs later, cells were collected and stained with Annexin VFITC and PI for 15 min at RT, then the apoptotic effect was measured by flow cytometry. OT-I or OT-II splenocytes were pulsed with specific peptides or PMA and ionomycin mixture with or without HSLs or TNF α plus cycloheximide. 24 hrs later, cells and supernatants were collected separately. For OT-I activation, cells were stained with CD69 and CD8. For OT-II activation, cells were stained with CD69 and CD4. Cell activation was measured by flow cytometry. All supernatants were detected for IL-2 secretion by ELISA.

[5] = test system: lymphoblast H9; assay: Annexin V/PI apoptosis detection, H9; format: cell-based, human
Experimental: as §2

[6] = test system: RAW264.7 cells; assay: Phagocytosis assay; format: cell-based
Experimental: For Phagocytic assay, polystyrene beads were coated with BSA plus mouse anti-BSA Ab via commercial methods. Before experiment, RAW264.7 cells were cultured on clean glass slices in 24-hole plate with Opti-MEM. Cells were co-cultured with coated beads, centrifuged at 900 g, 4° C. for 5 min and cultured at 37° C. for 45 min. Then cells were fixed with 4% paraformaldehyde and stained with 488 nm anti-mouse fluorescent Ab for immunofluorescent imaging. For analysis, total number of beads on each cell was calculated under bright field, the number of beads which were not engulfed were calculated under fluorescent lighting.

[7] = test system: caspases 8 and 3; assay: Caspase 8 and 3 cleavage in CD4 T cells (Western blot), mouse; format: cell-based; conditions: mouse (FIG. 2d)
[8] = test system: caspases 8 and 3; assay: Caspase 8 and 3 cleavage in human cells (Western blot); format: cell-based; conditions: human (FIGS. 3a and b)
[9] = test system: T cell; assay: Annexin V/PI apoptosis detection, T cells; format: cell-based; conditions: 10 and 20 μM
Experimental: as §2

[10] = molecular target: T1, TNFR1 (Mus musculus, UniProt P25118); assay: Quantum dot-based single particle tracking, TNFR1; format: cell-based
T1 construct: To track individual TNFR1 on the cell membrane; endogenous in cells
T1 sequence (P25118 30-454): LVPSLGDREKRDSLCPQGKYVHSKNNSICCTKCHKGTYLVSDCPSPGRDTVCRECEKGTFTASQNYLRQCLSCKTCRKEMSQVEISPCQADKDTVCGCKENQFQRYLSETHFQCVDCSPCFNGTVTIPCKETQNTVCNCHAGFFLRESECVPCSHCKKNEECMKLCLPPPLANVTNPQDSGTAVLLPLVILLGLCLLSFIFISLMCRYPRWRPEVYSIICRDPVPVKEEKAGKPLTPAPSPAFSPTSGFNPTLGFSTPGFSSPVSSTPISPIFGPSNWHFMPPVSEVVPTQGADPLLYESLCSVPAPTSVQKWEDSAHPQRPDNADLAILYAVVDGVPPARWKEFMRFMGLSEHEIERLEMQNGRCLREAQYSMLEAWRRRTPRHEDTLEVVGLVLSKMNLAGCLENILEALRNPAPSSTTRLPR
Experimental: as §1

[11] = test system: primary T cell and T cell line; assay: T cell activation (IL-2 release, CD69 expression); format: cell-based, mouse; conditions: induced by MHC class I and class II-restricted antigens or PMA plus ionophore
Experimental: as §2

**Q.** What does the source list for CCCCCCCCCC(=O)CC(=O)N[C@H]1CCOC1=O [3OC12 HSL, N-(3-oxo-dodecanoyl) homoserine lactone]?
**A.** appearance of ordered lipid domains ([1]; domains with cholesterol and sphingolipids): clear dissolution of the elevated plains; appearance of smaller domains unrelated to lipid rafts ([1]; mixture of DOPC and DPPG): minimally affected; Fcγ RIIA motion pattern [2]: higher percentage of Fcγ RIIA belonged to the simple and directed motions; Fcγ RIIA diffusion coefficient ([2]; without 3OC12 HSL 0.1056): 0.1564+/−0.006; area covered by Fcγ RIIA motion tracks ([2]; without 3OC12 HSL 0.6467): 0.9310+/−0.045; ZAP70 phosphorylation [3]: minimally affected; sensitivity to 3OC12 HSL [4]: sensitive; sensitivity to 3OC12 HSL [5]: relatively resistant; attachment of beads to cells [6]: not affected; phagocytosis of antibody-coated latex beads ([6]; without 3OC12 HSL 4.6): 2.6+/−0.2%; caspase 8 and 3 cleavage [7]: cleaved in a dose and time-dependent manner; caspase 8 and 3 cleavage [8]: cleaved in a dose and time-dependent manner; T cell death [9]: significant T cell death; TNFR1 diffusion coefficient [10]: significantly increased; TNFR1 x-y surface area coverage [10]: high x-y surface area coverage; TNFR1 motion pattern ([10]; MSD analysis): more likely to fall into the simple mode of motion; T cell activation measured by IL-2 release and CD69 expression [11]: suppress
